Data published in patent US7902361B2, “Pyrimidin-4-yl-3, 4-thione compounds and their use in therapy” (Cyclacel Limited, priority 2003, dated 2011).
Marks after values point to notes of the source that are not given here.

Key:
GSK3α = target: T1, GSK3α (Homo sapiens, UniProt P49840); test: GSK3α in vitro kinase assay; type: biochemical; details: recombinant human GSK3α, 100 μM ATP
T1 construct: purchased Upstate
Method: Both isoforms of GSK3 (α and β) are involved in the regulation of glycogen synthase activity—key enzyme in the glycogen metabolism. The inhibitory potency of example compounds was determined using in vitro kinase assays with recombinant human GSK3-α and -β; the IC50 values determined are presented in Table 9.
A 10-point titration was set up to determine the IC50 values of selected example compounds against GSK3β. Assays were performed using 96-well microtiter plates with a final volume of 25 μL per well. Each assay contained 1.5 units of GSK3β(New England Biolabs), 200 μM CREB phosphopeptide ([…]pSYR, Alta Biosciences), 20 mM Tris HCl pH7.5, 5 mM DTT, 15 mM MgCl2 supplemented with 100 μM ATP and 0.5 μCi of [γ-^32P] ATP plus or minus inhibitor in 2% DMSO. Assays were carried out for 30 minutes at 30° C. before stopping the reaction by the addition of an equal volume of 75 mM aqueous phosphoric acid. Samples were then spotted onto a p81 filterplate (Whatman) and a vacuum was applied. Wells were washed 3 times with 200 μL of dilute aqueous phosphoric acid before the addition of 50 μL Microscint 40 per well. Incorporation of radioactivity was determined on a Topcount microplate scintillation counter (Packard).
GSK3α (Upstate) was assayed exactly as described above except that 1 ng of enzyme was added per assay point.

glycogen synthase [1] = test: Glycogen synthase activation in HEK293 cells; type: cell-based; details: for Max FI (% to LiCl): maximum fold induction normalised to 40 mM LiCl
Method: (§1) HEK293 cells, mouse adipocytes or rat myotubes were treated in 10-cm Petri dishes with different concentrations of GSK3 inhibitor example compounds for 90 minutes. At the end of the treatment period the cells were washed and scraped in ice cold PBS buffer supplemented with 20 mM NaF. The cells were pelleted by centrifugation and lysed in 300 μL buffer (50 mM.HEPES pH 7.5, 10 mM EDTA, 100 mM NaF, 5 mM DTT, protease inhibitor cocktail (Sigma)). After incubation for 30 min on ice the samples were cleared by centrifugation. The activity of glycogen synthase was determined in the soluble fraction at two different concentrations of […]—low (0.1 mM) and high (10 mM). The reaction was carried out for 30 min (buffer: 50 mM Tris pH 7.8, 20 mM EDTA, 25 mM NaF, 5 mM DTT). The reaction mixture (total volume of 90 μL) contained 1% glycogen, 0.3 mM UDP-glucose and 0.06 μCi ^14C-UDP-glucose. Reaction was stopped by transfer of 70 μL to a GFC 96-well filter plate, containing 140 μL 100% ethanol and the glycogen was allowed to precipitate for 1 h at 4° C. The wells were washed 2 times with 200 μL 66% ethanol and than allowed to dry. Subsequently, 100 μL of scintillation liquid was added, and plates were sealed and counted in a Packard Topcounter. Glycogen synthase activation was calculated as the ratio between the incorporation of labelled ^14C-UDP-glucose in glycogen at low and high concentration of […] (fractional velocity).
(§2) The ability of GSK3 inhibitors to activate glycogen synthase was determined in HEK293 cells, mouse adipocytes and rat myotubed. The compounds tested activated glycogen synthase in all three cellular systems with EC50 values in the sub-micromolar to low micromolar concentration range. Most of them exceeded the stimulation induced by 40 mM LiCl (the highest compound concentration used in the assay was 20 μM).

glycogen synthase [2] = test: Glycogen synthase activation in mouse adipocytes; type: cell-based; details: for Max FI (% to LiCl): maximum fold induction normalised to 40 mM LiCl
Method: 3T3-L1 mouse pre-adipocytes were grown in DMEM medium supplemented with 10% foetal calf serum (FCS) and penicillin/streptomycin until fully confluent. Cell differentiation was initiated by the addition of 0.5 mM IBMX (2-isobutyl-1-methylxanthine), 0.25 μM dexamethasone and 1 μg/mL insulin into the growth media. The differentiation medium was replaced after 4 days and 7 days. After the initiation of differentiation the cells were grown for an additional 3 days in DMEM, 10% FCS and antibiotics.
as §1, §2

[3] = Oral glucose tolerance in male ZDF fa/fa rats; type: in vivo, rat; details: for % Glucose Decrease AUC (−270–180 min) / % Glucose decrease-AUC (0–180 min): ZDF fa/fa rats, oral glucose tolerance, 30 mg/kg per os twice (−270 and −30 min)
Method: The ability of example compounds of the present invention to improve glucose metabolism was tested in 12-13 week old male ZDF fa/fa rats. The test animals (10-15 mmol/L fasting glucose level) were dosed twice at 30 mg/kg and the glucose challenge was given at time 0. […] Most of these blood levels were below the EC50 values determined in cellular assays.
12-13 weeks old male ZDF fa/fa rats were used to study the effect of example compounds on oral glucose tolerance. […] Body weight was recorded three times per week. Test compounds were dissolve in a formulation of 10% DMSO, 5% Tween, 5% Span 20, 30% PEG 400 and 50% water (v/v) to provide final solutions at 5 mg/mL concentration. Each experimental group contained 7 animals. After an 16 h overnight fast the test compounds were administered at 30 mg/kg per os twice (at −270 min and −30 min) before the oral glucose tolerance test was commenced (2 g glucose/kg per os as a 40% solution introduced via feeding tube). A control group was dosed in a similar manner with the vehicle only. Blood sampling for blood glucose measurement (20 μL blood) was performed at −270, 0, 15, 30, 60, 90, 120 and 180 min. Mixed venous blood was collected from the tail vein into 20-μL glass capillaries, which were placed in a standard tube filled with 1 mL solution for hemolysis. Glucose levels were measured using the glucose oxidase procedure (Super G Glukosemessgeraet; Dr Mueller Geraetebau, Freital, Germany). In addition, 50 μL blood samples were taken at 30 and 60 min after the glucose dose, placed in heparinized tubes, which were then frozen immediately in liquid nitrogen. The bioanalytical method used employed isocratic elution liquid chromatography—tandem mass spectrometry in electrospray positive ion multiple reaction monitoring mode.

[4] = male ZDF fa/fa rats, 30 mg/kg per os twice, oral glucose tolerance test

T1 sequence (P49840 whole entry): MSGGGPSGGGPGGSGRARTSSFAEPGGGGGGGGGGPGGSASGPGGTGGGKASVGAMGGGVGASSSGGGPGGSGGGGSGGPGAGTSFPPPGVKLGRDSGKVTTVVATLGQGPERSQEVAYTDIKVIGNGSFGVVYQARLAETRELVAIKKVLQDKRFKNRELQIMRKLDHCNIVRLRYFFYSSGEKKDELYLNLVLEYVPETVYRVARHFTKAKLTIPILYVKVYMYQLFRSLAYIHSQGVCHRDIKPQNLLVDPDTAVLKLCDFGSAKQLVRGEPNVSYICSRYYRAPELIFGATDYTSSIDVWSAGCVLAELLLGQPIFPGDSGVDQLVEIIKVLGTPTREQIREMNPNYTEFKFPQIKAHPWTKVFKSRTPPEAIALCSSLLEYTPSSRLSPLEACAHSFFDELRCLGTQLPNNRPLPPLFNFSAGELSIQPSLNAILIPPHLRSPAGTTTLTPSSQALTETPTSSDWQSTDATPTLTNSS

Row | SMILES | IC50 (GSK3α) | EC50 (glycogen synthase [1]; Homo sapiens) | Max FI (% to LiCl) (glycogen synthase [1]) | EC50 (glycogen synthase [2]; Adipocyte) | Max FI (% to LiCl) (glycogen synthase [2]) | % Glucose Decrease AUC (−270–180 min) [3] | % Glucose decrease-AUC (0–180 min) [3] | decreased blood glucose levels [3, 4] | glucose AUC [3, 4] | EC50 (glycogen synthase [1]) | EC50 (glycogen synthase [2])
1 | Cc1c(-c2ccnc(Nc3cc(Br)cc(C(F)(F)F)c3)n2)sc(=O)n1C [Compound 68, 5-[2-(3-Bromo-5-trifluoromethyl-phenylamino)-pyrimidin-4-yl]-3,4-dimethyl-3H-thiazol-2-one] | 136 nM | 8340 ± 1880 nM | 96 % to LiCl | 9550 ± 7400 nM | 50 % to LiCl | 5% | 8.4* % | statistically significant | moderate decrease | – | –
2 | Cc1c(-c2ccnc(Nc3cccc(S(=O)(=O)NCCO)c3)n2)sc(=O)n1C [Compound 75, 3-[4-(3,4-Dimethyl-2-oxo-2,3-dihydro-thiazol-5-yl)-pyrimidin-2-ylamino]-N-(2-hydroxy-ethyl)-benzenesulfonamide] | 31 nM | 5170 ± 2200 nM | 108 % to LiCl | 2190 ± 400 nM | 181 % to LiCl | 13% | 6.4% | – | – | – | –
3 | CCNS(=O)(=O)c1cccc(Nc2nccc(-c3sc(=O)n(C)c3C)n2)c1 [Compound 62, 3-[4-(3,4-Dimethyl-2-oxo-2,3-dihydro-thiazol-5-yl)-pyrimidin-2-ylamino]-N-ethyl-benzenesulfonamide] | 27 nM | 684 ± 133 nM | 117 % to LiCl | 432 ± 179 nM | 234 % to LiCl | 9% | 3.6% | – | – | – | –
4 | CC(=O)Nc1cc(Nc2nccc(-c3sc(=O)n(C)c3C)n2)cc(C(F)(F)F)c1 [Compound 64, N-{3-[4-(3,4-Dimethyl-2-oxo-2,3-dihydro-thiazol-5-yl)-pyrimidin-2-ylamino]-5-trifluoromethyl-phenyl}-acetamide] | 2.4 nM | 49 ± 70 nM | 107 % to LiCl | 148 ± 70 nM | 143 % to LiCl | 9% | 8% | – | moderate decrease | – | –
5 | CNc1cc(Nc2nccc(-c3sc(=O)n(C)c3C)n2)cc(C(F)(F)F)c1 [Compound 76, 3,4-Dimethyl-5-[2-(3-methylamino-5-trifluoromethyl-phenylamino)-pyrimidin-4-yl]-3H-thiazol-2-one] | 42 nM | – | 88 % to LiCl | – | 196 % to LiCl | 0% | 0.5% | – | – | 444 ± 178 nM | 1110 ± 530 nM
6 | COCCNS(=O)(=O)c1cccc(Nc2nccc(-c3sc(=O)n(C)c3C)n2)c1 [Compound 67, 3-[4-(3,4-Dimethyl-2-oxo-2,3-dihydro-thiazol-5-yl)-pyrimidin-2-ylamino]-N-(2-methoxy-ethyl)-benzenesulfonamide] | 17.8 nM | 3720 ± 2500 nM | 85 % to LiCl | 4830 ± 4600 nM | 177 % to LiCl | 14% | 7.5% | – | moderate decrease | – | –
